# Assay results from patent publication US20230310408A1, “TLR7 INHIBITOR IN COMBINATION WITH PREDNISOLONE OR HYDROXYCHLOROQUINE FOR TREATING CUTANEOUS LUPUS ERYTHEMATOSUS” (priority 2020, published 2023).
# “Also recorded” adds a separate entry of the source.
# Columns and labels:
# Format in all cases: in vivo, mouse
# Female MRL/lpr mice [1] = experiment: Cutaneous model of lupus: female MRL/lpr mice treated orally once daily for 8 weeks;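 on all read-outs here: mice aged 12–14 weeks, randomized by anti-dsDNA antibody titer and urinary NGAL, treated groups compared against vehicle controls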; details: for % Survival / anti-dsDNA, anti-Ro and anti-smRNP auto-antibody titers / kidney injury markers (proteinuria and urinary NGAL) / cutaneous lesions (number of lesions on face, neck, head, ear; total lesions) / erythema of cutaneous lesions (neck, ear, total): oral once daily; for % Survival / cutaneous lesions (number of lesions on face, neck, head, ear; total lesions) / erythema of cutaneous lesions (neck, ear, total): 8 weeks; for anti-dsDNA, anti-Ro and anti-smRNP auto-antibody titers: 8 weeks (FIG. 3); for anti-dsDNA, anti-Ro and anti-smRNP auto-antibody titers / kidney injury markers (proteinuria and urinary NGAL): at 0.25 and 0.75 mg/kg Compound (I); for kidney injury markers (proteinuria and urinary NGAL): 8 weeks (FIG. 4); for cutaneous lesions (number of lesions on face, neck, head, ear; total lesions): versus vehicle (FIG. 1); for erythema of cutaneous lesions (neck, ear, total): versus vehicle (FIG. 2)
# Female MRL/lpr mice [2] = experiment: Combination studies in MRL/lpr model of lupus, established disease; details: 5 weeks; for total number of cutaneous lesions: doses of Table 2 (FIG. 6); for neck erythema of cutaneous lesions: doses of Table 2 (FIG. 7); for ear erythema of cutaneous lesions: doses of Table 2 (FIG. 8); for total erythema of cutaneous lesions: doses of Table 2 (FIG. 9); for kidney injury marker proteinuria: doses of Table 2 (FIG. 10); for kidney injury marker urinary NGAL: doses of Table 2 (FIG. 11)
# Experimental: Female MRL/lpr mice of 15 weeks of age were treated for 5 weeks. […] Total skin lesions score includes cumulative score of Neck/Back, Face, Head and Ear lesions
# Female MRL/lpr mice [3] = experiment: Combination studies in MRL/lpr model of lupus, advanced disease; details: 5 weeks; for total number of cutaneous lesions: doses of Table 2 (FIG. 12); for neck erythema of cutaneous lesions: doses of Table 2 (FIG. 13, FIG. 14); for ear erythema of cutaneous lesions: doses of Table 2 (FIG. 15); for total erythema of cutaneous lesions: doses of Table 2 (FIG. 16)
# Experimental: Female MRL/lpr mice of 16 weeks of age were treated for 5 weeks. […] Total skin lesions score includes cumulative score of Neck/Back, Face, Head and Ear lesions.
Molecule,"anti-dsDNA, anti-Ro and anti-smRNP auto-antibody titers (Female MRL/lpr mice [1])",kidney injury markers (proteinuria and urinary NGAL) (Female MRL/lpr mice [1]),"cutaneous lesions (number of lesions on face, neck, head, ear; total lesions) (Female MRL/lpr mice [1])","erythema of cutaneous lesions (neck, ear, total) (Female MRL/lpr mice [1])",total number of cutaneous lesions (Female MRL/lpr mice [2]),neck erythema of cutaneous lesions (Female MRL/lpr mice [2]),ear erythema of cutaneous lesions (Female MRL/lpr mice [2]),total erythema of cutaneous lesions (Female MRL/lpr mice [2]),kidney injury marker proteinuria (Female MRL/lpr mice [2]),kidney injury marker urinary NGAL (Female MRL/lpr mice [2]),total number of cutaneous lesions (Female MRL/lpr mice [3]),neck erythema of cutaneous lesions (Female MRL/lpr mice [3]),ear erythema of cutaneous lesions (Female MRL/lpr mice [3]),total erythema of cutaneous lesions (Female MRL/lpr mice [3]),other results
"Cc1c(-c2[nH]c3ccc(C4CCN(CC(N)=O)CC4)cc3c2C(C)C)cn2ncnc2c1C [Compound (I), 2-(4-(2-(7,8-dimethyl-[1,2,4]triazolo[1,5-a]pyridin-6-yl)-3-isopropyl-1H-indol-5-yl)piperidin-1-yl)acetamide]",Inhibition; also recorded: significant suppression,reduction; also recorded: Inhibition; also recorded: suppression,significant and robust dose-dependent suppression; also recorded: Dose-dependent inhibition,suppressed; also recorded: significant reduction; also recorded: Dose-dependent inhibition,suppressed,suppressed,suppressed,suppressed,suppression,suppression,suppressed,suppressed; also recorded: increased suppression of erythema of cutaneous lesions on the neck of mice compared the treatment with hydroxychloroquine,suppressed,suppressed,"% Survival (Female MRL/lpr mice [1]; 0.005 mg/kg): 87%; % Survival (Female MRL/lpr mice [1]; 0.02 mg/kg): 93%; % Survival (Female MRL/lpr mice [1]; 0.25 mg/kg): 100%; % Survival (Female MRL/lpr mice [1]; 0.75 mg/kg): 100%; Type I IFN response gene expression (Female MRL/lpr mice [1]; at 0.25 and 0.75 mg/kg, blood, qPCR): inhibited; % Survival (Female MRL/lpr mice [2]; 0.25 mg/kg): 100%; % Survival (Female MRL/lpr mice [3]; 0.25 mg/kg): 93.3%"
"CC12C=CC(=O)C=C1CCC1C2C(O)CC2(C)C1CCC2(O)C(=O)CO (stereo not shown) [Prednisolone, 11,17-dihydroxy-17-(2-hydroxyacetyl)-10,13-dimethyl-6,7,8,9,10,11,12,13,14,15,16,17-dodecahydrocyclopenta[a] phenanthren-3-one]",inhibition,reduction,inhibition,reduction,suppression of cutaneous lesions but less than treatment with Compound (I),suppression,suppression of erythema of cutaneous lesions on the ear of mice but less than treatment with Compound (I),suppression,suppression,suppression,suppression of cutaneous lesions but less than treatment with Compound (I),suppression,suppression of erythema of cutaneous lesions on the ear of mice but less than treatment with Compound (I),suppression,% Survival (Female MRL/lpr mice [1]; 10 mg/kg): 100%; % Survival (Female MRL/lpr mice [2]; 1 mg/kg): 93.3%; % Survival (Female MRL/lpr mice [2]; 10 mg/kg): 93.3%; % Survival (Female MRL/lpr mice [3]; 1 mg/kg): 86.6%; % Survival (Female MRL/lpr mice [3]; 10 mg/kg): 93.3%
hydroxychloroquine [HCQ],–,–,–,–,suppression of cutaneous lesions but less than treatment with Compound (I),suppression,suppression of erythema of cutaneous lesions on the ear of mice but less than treatment with Compound (I),suppression,suppression,suppression,suppression of cutaneous lesions but less than treatment with Compound (I),suppression,suppression of erythema of cutaneous lesions on the ear of mice but less than treatment with Compound (I),suppression,% Survival (Female MRL/lpr mice [2]; 100 mg/kg): 93.3%; % Survival (Female MRL/lpr mice [3]; 100 mg/kg): 100%
